We go through 20 compounds from US20060116368A1, “4-Piperidinecarboxamide modulators of vanilloid VR1 receptor” (priority 2004, published 2006).

The target of assay [1] is T1, Human Vanilloid Receptor 1 (Homo sapiens, UniProt Q8NER1).
T1 construct: expressed in transfected cells; host or cells: HEK 293
In words: Human VR1 functional assay using FLIPR, Protocol 2. In kind it is cell-based. Conditions: for h % I (1 uM): inhibition of capsaicin (EC80)-induced calcium response; for h % I (1 uM) / % E80 Capsaicin (1.2 uM): HEK 293 stably transfected hVR1; for IC50: decreased capsaicin (EC80)-induced calcium response, HEK 293 stably transfected hVR1, read-out: h IC50; for % E80 Capsaicin (1.2 uM): test compound-induced calcium response (agonist mode). As to the method:
The functional activity of the test compounds was determined by measuring changes in intracellular calcium concentration using FLIPR™ Calcium-3 Assay Kit and FLIPR™ technology.
HEK 293 cells stably transfected with Human Vanilloid Receptor 1 were maintained at 37° C. and 5% CO2 in: Dulbecco's Modification of Eagle's Medium (4.5 g/L glucose, L-glutamine, sodium pyruvate), 10% FBS, 1× Penicillin-Streptomycin, 400 ug/mL G418 Sulfate. Approximately 24 hours prior to assay, 5,000 cells/well were plated onto a 384-well black clear bottom poly-D-lysine-coated assay plate with a well volume of 25 μL using Titertek Multidrop.
On the day of the assay, the medium was dumped and 50 μL of dye (bulk kit vials diluted with 200 mL buffer) was loaded using Multidrop. Plates were incubated with dye at 37° C. for 30 minutes followed by 30 minutes incubation at room temperature. Then the plates were assayed by FLIPR™ with 2 additions: 12.5 μL test compound with 5 minutes data acquisition followed by 12.5 μL capsaicin at the EC80 concentration.
The EC50 values of test compounds were calculated based on a test compound-induced calcium response at the 5-minute time point. The IC50 values of compounds were calculated based on a decreased capsaicin-induced calcium response in the presence of test compound.

The target of assay [2] is T1, Human Vanilloid Receptor 1. In words: Human VR1 functional assay using FLIPR, Protocol 1. Conditions: for inhibition at 9 µM: HEK293, 9 uM, inhibition of capsaicin (EC80)-induced calcium response, HEK 293 cells transfected with hVR1, read-out: h % I (9 uM); for IC50: decreased capsaicin (EC80)-induced calcium response, HEK 293 hVR1, read-out: h IC50. In kind it is cell-based. A digest of the protocol:
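Transfected HEK 293 cells, plated 24 h before, were dye-loaded (30 min 37 °C, 30 min RT) and read by FLIPR calcium assay. Compound added with 5 min acquisition, then capsaicin at EC80. EC50 from compound-induced calcium at 5 min; IC50 from reduced capsaicin-induced response.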

Assay [3] has as its target T2, hVR1 receptors (Homo sapiens, UniProt Q8NER1).
T2 construct: expressed in transfected cells; host or cells: HEK293
In words: Human VR1 binding assay ([3H]RTX). Conditions: membranes of HEK293 cells transfected with human VR1; for Ki: [3H]RTX binding; for h Binding % I (1 uM): inhibition of [3H]RTX binding. As to the method: Compounds of the present invention were tested for their ability to inhibit the binding of [^3H] RTX to hVR1 receptors in a [^3H] RTX binding assay as previously described (Zhang, Sui-Po. Improved ligand binding assays for vanilloid receptors. PCT Int. Appl. (2002), WO 0233411 A1 20020425 AN 2002:315209, and Grant, Elfrida R., Dubin, Adrienne E., Zhang, Sui-Po, Zivin, Robert A., Zhong, Zhong Simultaneous intracellular calcium and sodium flux imaging in human vanilloid receptor 1 (VR1)-transfected human embryonic kidney cells: a method to resolve ionic dependence of VR1-mediated cell death. J. Pharmacol. Exp. Ther., 2002, 300(1), 9-17.)
HEK293 cells were transfected with human VR1 vanilloid receptors and washed with Hank's balanced Salt Solution, dissociated with cell dissociation buffer (Sigma), and then centrifuged at 1000×g for 5 min. Cell pellets were homogenized in cold 20 mM HEPES buffer, pH 7.4, containing 5.8 mM NaCl, 320 mM sucrose, 2 mM MgCl2, 0.75 CaCl2 and 5 mM KCl and centrifuged at 1000×g for 15 min. The resultant supernate was then centrifuged at 40000×g for 15 min. The pelleted membranes were stored in a freezer at −80° C.
Approximately 120 μg protein/ml from membranes were incubated with indicated concentrations of [^3H]RTX in 0.5 ml of the HEPES buffer (pH 7.4) containing 0.25 mg/mL fatty acid-free bovine serum albumin at 37° C. for 60 min. The reaction mixture was then cooled to 4° C., added 0.1 mg α1-acid glycoprotein to each sample and incubated at 4° C. for 15 min. The samples were centrifuged at 18500×g for 15 min. The tip of the microcentrifuge tube containing the pellet was cut off. Bound radioactivity was quantified by scintillation counting. Non-specific binding was tested in the presence of 200 nM unlabeled RTX.
Data were calculated according to the equation: % inhibition=(total binding−binding)*100/(total binding−non specific binding). Ki values were calculated using a Prism program.

T2 sequence (Q8NER1 whole entry): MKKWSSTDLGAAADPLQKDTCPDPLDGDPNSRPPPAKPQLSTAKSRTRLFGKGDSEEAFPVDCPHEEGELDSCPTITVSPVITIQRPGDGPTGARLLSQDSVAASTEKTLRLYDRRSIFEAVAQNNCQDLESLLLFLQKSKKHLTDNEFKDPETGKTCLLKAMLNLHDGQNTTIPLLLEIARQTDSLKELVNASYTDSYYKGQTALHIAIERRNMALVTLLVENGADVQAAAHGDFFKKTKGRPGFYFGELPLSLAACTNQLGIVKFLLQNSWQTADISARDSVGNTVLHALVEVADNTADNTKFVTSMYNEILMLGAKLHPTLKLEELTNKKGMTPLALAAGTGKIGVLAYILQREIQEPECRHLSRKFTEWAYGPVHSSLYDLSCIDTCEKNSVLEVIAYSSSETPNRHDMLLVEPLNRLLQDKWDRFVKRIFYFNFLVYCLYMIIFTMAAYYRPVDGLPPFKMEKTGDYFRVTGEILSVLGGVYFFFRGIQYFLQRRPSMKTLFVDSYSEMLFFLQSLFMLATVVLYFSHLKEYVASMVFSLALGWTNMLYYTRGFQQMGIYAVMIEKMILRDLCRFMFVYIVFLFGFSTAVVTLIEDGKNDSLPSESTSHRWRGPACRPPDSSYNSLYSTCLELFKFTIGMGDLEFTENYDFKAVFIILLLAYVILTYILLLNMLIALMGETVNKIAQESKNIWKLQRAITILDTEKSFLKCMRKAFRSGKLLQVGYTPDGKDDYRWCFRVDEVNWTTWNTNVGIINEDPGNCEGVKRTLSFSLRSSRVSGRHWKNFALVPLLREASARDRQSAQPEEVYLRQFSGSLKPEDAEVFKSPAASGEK
T1 sequence (Q8NER1 whole entry): as above

Consider `O=C1CSc2ccc(NC(=O)C3CCN(c4cc(F)c(F)c(F)c4)CC3)cc2N1` [Example 173, 1-(3,4,5-Trifluoro-phenyl)-piperidine-4-carboxylic acid (3-oxo-3,4-dihydro-2H-benzo[1,4]thiazin-6-yl)-amide], for which, in assay [1], the “h % I (1 uM)” value was 37% and the IC50 was 1960 nM.
The corresponding values for `CCOC(=O)C1(C)Oc2ccc(NC(=O)C3CCN(c4cc(F)c(F)c(F)c4)CC3)cc2NC1=O` (stereo not shown) [Example 175, 2-Methyl-3-oxo-6-{[1-(3,4,5-trifluoro-phenyl)-piperidine-4-carbonyl]-amino}-3,4-dihydro-2H-benzo[1,4]oxazine-2-carboxylic acid ethyl ester] are 54% and 873 nM.
On to `O=C1COc2c(cccc2NC(=O)C2CCN(c3cc(F)c(F)c(F)c3)CC2)N1` [Example 171, 1-(3,4,5-Trifluoro-phenyl)-piperidine-4-carboxylic acid (3-oxo-3,4-dihydro-2H-benzo[1,4]oxazin-8-yl)-amide], for which the “% E80 Capsaicin (1.2 uM)” value in assay [1] was 17%.
Still for that read-out and setting: the figure for `CCOC(=O)C1Oc2ccc(NC(=O)C3CCN(c4cc(F)c(F)c(F)c4)CC3)cc2NC1=O` (stereo not shown) [Example 177, 3-Oxo-6-{[1-(3,4,5-trifluoro-phenyl)-piperidine-4-carbonyl]-amino}-3,4-dihydro-2H-benzo[1,4]oxazine-2-carboxylic acid ethyl ester] is 13%.
For the compound `O=C1COc2cc(NC(=O)C3CCN(c4cc(F)c(F)c(F)c4)CC3)ccc2N1` [Example 170, 1-(3,4,5-Trifluoro-phenyl)-piperidine-4-carboxylic acid (3-oxo-3,4-dihydro-2H-benzo[1,4]oxazin-7-yl)-amide], in assay [1], the “h % I (1 uM)” value is given as 55% and the IC50 was 735 nM.
In the case of `CN1C(=O)COc2ccc(NC(=O)C3CCN(c4cc(F)c(F)c(F)c4)CC3)cc21` [Example 172, 1-(3,4,5-Trifluoro-phenyl)-piperidine-4-carboxylic acid (4-methyl-3-oxo-3,4-dihydro-2H-benzo[1,4]oxazin-6-yl)-amide], in assay [1], the “% E80 Capsaicin (1.2 uM)” value was found to be 39%.
Regarding `O=C1COc2cccc(NC(=O)C3CCN(c4cc(F)c(F)c(F)c4)CC3)c2N1` [Example 169, 1-(3,4,5-Trifluoro-phenyl)-piperidine-4-carboxylic acid (3-oxo-3,4-dihydro-2H-benzo[1,4]oxazin-5-yl)-amide], the “h % I (1 uM)” value in assay [1] was found to be 9%.
For the compound `COC(=O)CC1Oc2ccc(NC(=O)C3CCN(c4cc(F)c(F)c(F)c4)CC3)cc2NC1=O` (stereo not shown) [Example 179, (3-Oxo-6-{[1-(3,4,5-trifluoro-phenyl)-piperidine-4-carbonyl]-amino}-3,4-dihydro-2H-benzo[1,4]oxazin-2-yl)-acetic acid methyl ester], in assay [1], the “h % I (1 uM)” value worked out at 54% and the IC50 is 890 nM.
As for `Cc1ccccc1N1CCC(C(=O)Nc2ccc3c(c2)NC(=O)CO3)CC1` [Example 141, 1-o-Tolyl-piperidine-4-carboxylic acid (3-oxo-3,4-dihydro-2H-benzo[1,4]oxazin-6-yl)-amide], in assay [2], the inhibition at 9 µM was found to be 100% and the IC50 came out at 150 nM. Moreover, the Ki in assay [3] was 61 nM.
For `O=C1COc2ccc(NC(=O)C3CCN(c4cccc(F)c4)CC3)cc2N1` [Example 147, 1-(3-Fluoro-phenyl)-piperidine-4-carboxylic acid (3-oxo-3,4-dihydro-2H-benzo[1,4]oxazin-6-yl)-amide], in assay [2], the inhibition at 9 µM was 90% and the IC50 turned out to be 520 nM. Further, in assay [3], the Ki amounted to 84 nM.
Regarding `O=C(O)CC1Oc2ccc(NC(=O)C3CCN(c4cc(F)c(F)c(F)c4)CC3)cc2NC1=O` (stereo not shown) [Example 180, (3-Oxo-6-{[1-(3,4,5-trifluoro-phenyl)-piperidine-4-carbonyl]-amino}-3,4-dihydro-2H-benzo[1,4]oxazin-2-yl)-acetic acid], the “h % I (1 uM)” value in assay [1] was determined as 5%.
On to `CC(C)c1ccccc1N1CCC(C(=O)Nc2ccc3c(c2)NC(=O)CO3)CC1` [Example 143, 1-(2-Isopropyl-phenyl)-piperidine-4-carboxylic acid (3-oxo-3,4-dihydro-2H-benzo[1,4]oxazin-6-yl)-amide], for which, in assay [2], the inhibition at 9 µM amounted to 101% and the IC50 was found to be 180 nM. The Ki in assay [3] amounted to 78 nM.
On to `O=C(Nc1ccc2c(c1)NC(=O)C(C(=O)O)O2)C1CCN(c2cc(F)c(F)c(F)c2)CC1` (stereo not shown) [Example 178, 3-Oxo-6-{[1-(3,4,5-trifluoro-phenyl)-piperidine-4-carbonyl]-amino}-3,4-dihydro-2H-benzo[1,4]oxazine-2-carboxylic acid], for which the “% E80 Capsaicin (1.2 uM)” value in assay [1] worked out at 80%.
On the same count and under the same terms, the figure for `CC1(C(=O)O)Oc2ccc(NC(=O)C3CCN(c4cc(F)c(F)c(F)c4)CC3)cc2NC1=O` (stereo not shown) [Example 176, 2-Methyl-3-oxo-6-{[1-(3,4,5-trifluoro-phenyl)-piperidine-4-carbonyl]-amino}-3,4-dihydro-2H-benzo[1,4]oxazine-2-carboxylic acid] is 116%.
Consider `O=C1COc2ccc(NC(=O)C3CCN(c4ccc(F)c(F)c4)CC3)cc2N1` [Example 155, 1-(3,4-Difluoro-phenyl)-piperidine-4-carboxylic acid (3-oxo-3,4-dihydro-2H-benzo[1,4]oxazin-6-yl)-amide], for which, in assay [2], the inhibition at 9 µM is 89% and the IC50 was found to be 850 nM. This compound yielded a Ki in assay [3] of 56 nM.
The corresponding values for `Cc1cccc(N2CCC(C(=O)Nc3ccc4c(c3)NC(=O)CO4)CC2)c1C` [Example 145, 1-(2,3-Dimethyl-phenyl)-piperidine-4-carboxylic acid (3-oxo-3,4-dihydro-2H-benzo[1,4]oxazin-6-yl)-amide] are 99.5%, 60 nM and 27 nM.
In the case of `O=C(Nc1ccc2ncsc2c1)C1CCN(c2cccc(C(F)(F)F)c2)CC1` [Example 13, 1-(3-Trifluoromethyl-phenyl)-piperidine-4-carboxylic acid benzothiazol-6-ylamide], in assay [2], the inhibition at 9 µM worked out at 88% and the IC50 turned out to be 480 nM. The “h Binding % I (1 uM)” value in assay [3] is given as 47.7%.
As to `Cc1cccc(N2CCC(C(=O)Nc3ccc4c(c3)NC(=O)CO4)CC2)c1` [Example 140, 1-m-Tolyl-piperidine-4-carboxylic acid (3-oxo-3,4-dihydro-2H-benzo[1,4]oxazin-6-yl)-amide], in assay [2], the inhibition at 9 µM came out at 84% and the IC50 stood at 490 nM. The inhibition constant Ki in assay [3] was found to be 225 nM.
With `CC(=O)c1cc2c(cc1NC(=O)C1CCN(c3cccc(C(F)(F)F)c3)CC1)OCO2` [Example 33, 1-(3-Trifluoromethyl-phenyl)-piperidine-4-carboxylic acid (6-acetyl-benzo[1,3]dioxol-5-yl)-amide], in assay [2], the inhibition at 9 µM stood at 12.6%. Besides, the “h Binding % I (1 uM)” value in assay [3] is 12.8%.
For the compound `O=C(Nc1ccc2c(c1)NC(=O)C(CCO)O2)C1CCN(c2cc(F)c(F)c(F)c2)CC1` (stereo not shown) [Example 174, 1-(3,4,5-Trifluoro-phenyl)-piperidine-4-carboxylic acid [2-(2-hydroxy-ethyl)-3-oxo-3,4-dihydro-2H-benzo[1,4]oxazin-6-yl]-amide], in assay [1], the “h % I (1 uM)” value was 99% and the IC50 stood at 4.8 nM.

Usually IC50 stands for the point on the concentration scale where inhibition reaches its midpoint. For orientation: Ki means the equilibrium dissociation constant of an inhibitor or competing ligand from its target.
